Experimental findings from patent US20240409557A1, “5,6-FUSED AND 6,6-FUSED BICYCLIC ALCOHOLS AND ETHERS AND COMPOSITIONS FOR USE AS 15-PROSTAGLANDIN DEHYDROGENASE MODULATORS” (AMGEN INC., priority 2023, published 2024) are described below.

Assay [1] addresses T1, human recombinant 15-PGDH (Homo sapiens, UniProt P15428).
T1 sequence (P15428 1-266): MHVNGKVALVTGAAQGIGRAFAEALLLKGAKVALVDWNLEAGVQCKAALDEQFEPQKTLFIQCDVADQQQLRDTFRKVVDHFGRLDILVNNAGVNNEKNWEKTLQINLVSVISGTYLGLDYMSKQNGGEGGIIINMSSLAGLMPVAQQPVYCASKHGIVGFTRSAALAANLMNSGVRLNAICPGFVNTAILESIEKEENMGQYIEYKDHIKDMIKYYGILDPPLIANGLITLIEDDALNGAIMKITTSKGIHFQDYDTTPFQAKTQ
Put plainly: Recombinant 15-PGDH enzymatic inhibition assay (PGDH-Lumi, NADH signal). Conditions: recombinant 15-PGDH; 15 min pre-incubation, 60 min reaction with PGE2 and NAD+, NADH signal. The assay is classed as biochemical. Summed up:
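Recombinant 15-PGDH pre-incubated 15 min at room temperature with compound (22 concentrations, 2-fold dilutions) in 50 mM Tris pH 7.5, 0.01% Tween-20, […].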

The target in the next assay is T2, 15-PGDH in A549 cells (Homo sapiens, UniProt P15428).
T2 construct: endogenous in cells; host or cells: A549
T2 sequence (P15428 1-266): T1 sequence (P15428 1-266)
Put plainly: A549 cellular 15-PGDH assay (PGE2 accumulation, HTRF). To be noted: interleukin-stimulated, inhibitor 24 hrs, PGE2 by competitive HTRF, read-out: A549 Cell Assay IC50. The assay is classed as cell-based. From the text: This assay was used for the quantification of IL-13 induced Native Prostaglandin E2 (PGE2) produced by A549 cells (epithelial cells from lung carcinoma) in cell culture supernatants. […] PGE2 was detected in a competitive HTRF assay by using anti PGE2 antibody labeled with Europium cryptate, and PGE2 labeled with […]. The PGE2 present in the sample competes with the binding between the two HTRF detection solutions (reagents) and thereby prevents FRET from occurring. The specific signal is inversely proportional to the PGE2 concentration. From this binding data, IC50 values were calculated.

For the compound `O[C@H](c1cc2ccc(-c3cnc4[nH]ncc4c3)nc2s1)C1CC(F)(F)C1` (single isomer, unassigned) [Compound B47S], the IC50 in assay [1] is 0.758 nM; at 15-PGDH in A549 cells it was 1.93 nM.

As to `Cc1cn2cc(-c3ccc4cc([C@H](O)C5CC(F)(F)C5)sc4n3)ccc2n1` (single isomer, unassigned) [Compound B48R], the concentration for half-maximal inhibition (IC50) came to 0.4 nM in assay [1] and 1.77 nM at 15-PGDH in A549 cells.

For `Cn1cnc(-c2ccc3cc([C@H](O)C4CC(F)(F)C4)sc3n2)cc1=O` (single isomer, unassigned) [Compound B49R], the IC50 in assay [1] was determined as 0.26 nM; on 15-PGDH in A549 cells, 0.723 nM.

Regarding `Cn1ccc2cc(-c3ccc4cc([C@H](O)C5CC(F)(F)C5)sc4n3)ccc2c1=O` (single isomer, unassigned) [Compound B50R], the half-maximal inhibitory concentration (IC50) was found to be 0.343 nM in assay [1] and 0.52 nM on 15-PGDH in A549 cells.

Regarding `Cn1ccc2cc(-c3ccc4cc([C@@H](O)C5CC(F)(F)C5)sc4n3)ccc2c1=O` (single isomer, unassigned) [Compound B50S], the figures for the half-maximal inhibitory concentration (IC50) (in assay [1]; at 15-PGDH in A549 cells) were 1.86 nM and 7.99 nM, respectively.

Consider `Cc1nc2ccc(-c3ccc4cc([C@H](O)C5CC(F)(F)C5)sc4n3)cc2o1` (single isomer, unassigned) [Compound B51R], for which the figures for the IC50 (in assay [1]; at 15-PGDH in A549 cells) were 0.164 nM and 0.357 nM, respectively.

Regarding `O[C@@H](c1cc2ccc(-c3ccc4nccnc4c3)nc2s1)C1CC(F)(F)C1` (single isomer, unassigned) [Compound B52R], the figures for the IC50 (in assay [1]; on 15-PGDH in A549 cells) were 0.291 nM and 0.69 nM, respectively.

Take `O[C@H](c1cc2ccc(-c3ccc4nccnc4c3)nc2s1)C1CC(F)(F)C1` (single isomer, unassigned) [Compound B52S]: the IC50 in assay [1] was 1.6 nM; at 15-PGDH in A549 cells, 11.7 nM.

Take `CCn1cc2cc(-c3ccc4cc([C@H](O)C5CC(F)(F)C5)sc4n3)cnc2n1` (single isomer, unassigned) [Compound B53R]: the concentration for half-maximal inhibition (IC50) in assay [1] worked out at 0.222 nM; at 15-PGDH in A549 cells it was 0.354 nM.

`CCn1cc2cc(-c3ccc4cc([C@@H](O)C5CC(F)(F)C5)sc4n3)cnc2n1` (single isomer, unassigned) [Compound B53S]: the IC50 was found to be 0.436 nM in assay [1] and 0.288 nM on 15-PGDH in A549 cells.

Consider `CCC[C@@H](O)c1cc2ccc(-c3cnc4nn(C)cc4c3)cc2s1` (single isomer, unassigned) [Compound B54R], for which the values for the concentration for half-maximal inhibition (IC50) (in assay [1]; on 15-PGDH in A549 cells) were 4.11 nM and 11.8 nM, respectively.

For the compound `Cc1cn2ccc(-c3ccc4cc([C@H](O)C5CC(F)(F)C5)sc4n3)cc2n1` (single isomer, unassigned) [Compound B55R], the values for the IC50 (in assay [1]; on 15-PGDH in A549 cells) were 0.308 nM and 0.657 nM, respectively.

Regarding `Cc1cn2ccc(-c3ccc4cc([C@@H](O)C5CC(F)(F)C5)sc4n3)cc2n1` (single isomer, unassigned) [Compound B55S], the figures for the 50% inhibitory concentration (IC50) (in assay [1]; on 15-PGDH in A549 cells) were 2.64 nM and 11.8 nM, respectively.

Turning to `CC(C)n1cc2cc(-c3ccc4cc([C@H](O)C5CC(F)(F)C5)sc4n3)ccc2n1` (single isomer, unassigned) [Compound B56R], the IC50 in assay [1] stood at 0.603 nM; at 15-PGDH in A549 cells, 2.47 nM.

In the case of `O[C@@H](c1cc2ccc(-c3cncnc3)nc2s1)C1CC(F)(F)C1` (single isomer, unassigned) [Compound B57R], the concentration for half-maximal inhibition (IC50) in assay [1] came to 0.32 nM; at 15-PGDH in A549 cells, 0.657 nM.

Turning to `Cn1cc2cc(-c3ccc4cc([C@H](O)C5CCCC5)sc4c3)cnc2n1` (single isomer, unassigned) [Compound B58R], the IC50 in assay [1] is 0.24 nM; at 15-PGDH in A549 cells, 1.41 nM.

As to `COCC[C@@H](O)c1cc2ccc(-c3cnc4nn(C)cc4c3)cc2s1` (single isomer, unassigned) [Compound B59R], the IC50 in assay [1] was 4.75 nM; at 15-PGDH in A549 cells, 7.79 nM.

For the compound `Cn1cc2cc(-c3ccc4cc([C@H](O)CCC(F)(F)F)sc4c3)cnc2n1` (single isomer, unassigned) [Compound B60R], the IC50 in assay [1] came to 1.17 nM; at 15-PGDH in A549 cells it was 3.38 nM.

With `CC(C)n1cc2cc(-c3ccc4cc([C@H](O)C5CC(F)(F)C5)sc4n3)cnc2n1` (single isomer, unassigned) [Compound B64R], the IC50 in assay [1] stood at 0.325 nM; on 15-PGDH in A549 cells it was 0.311 nM.

Turning to `CC(C)n1cc2cc(-c3ccc4cc([C@@H](O)C5CC(F)(F)C5)sc4n3)cnc2n1` (single isomer, unassigned) [Compound B64S], the IC50 in assay [1] was 0.597 nM; at 15-PGDH in A549 cells, 0.483 nM.

As for `CC(C)n1ncc2cc(-c3ccc4cc([C@H](O)C5CC(F)(F)C5)sc4n3)cnc21` (single isomer, unassigned) [Compound B65R], the IC50 in assay [1] came to 0.381 nM; on 15-PGDH in A549 cells, 0.263 nM.

As for `[2H][C@](O)(c1cc2ccc(-c3cnc4nn(C)cc4c3)nc2s1)C1CCOCC1` (single isomer, unassigned) [Compound B66R], the results for the IC50 (in assay [1]; on 15-PGDH in A549 cells) were 0.396 nM and 0.303 nM, respectively.

In the case of `Cn1cc2cc(-c3ccc4nc([C@H](O)C5CC(F)(F)C5)sc4n3)cnc2n1` (single isomer, unassigned) [Compound B72R], the 50% inhibitory concentration (IC50) in assay [1] amounted to 0.216 nM; at 15-PGDH in A549 cells, 0.0479 nM.

With `Cn1cc2cc(-c3ccc4nc([C@@H](O)C5CC(F)(F)C5)sc4n3)cnc2n1` (single isomer, unassigned) [Compound B72S], the results for the IC50 (in assay [1]; at 15-PGDH in A549 cells) were 9.58 nM and 5.27 nM, respectively.

`Cn1cc2cc(-c3ccc4sc([C@H](O)C5CC(F)(F)C5)cc4n3)cnc2n1` (single isomer, unassigned) [Compound B73R]: the IC50 was determined as 0.412 nM in assay [1] and 0.061 nM on 15-PGDH in A549 cells.

As to `Cn1cc2cc(-c3ccc4sc([C@@H](O)C5CC(F)(F)C5)cc4n3)cnc2n1` (single isomer, unassigned) [Compound B73S], the IC50 in assay [1] turned out to be 0.791 nM; at 15-PGDH in A549 cells it was 0.863 nM.

Take `Cn1cc2cc(-c3ccc4sc([C@H](O)C5CC(F)(F)C5)nc4n3)cnc2n1` (single isomer, unassigned) [Compound B74R]: the IC50 in assay [1] came out at 4.76 nM; at 15-PGDH in A549 cells, 0.494 nM.

`Cn1cc2cc(-c3ccc4sc([C@@H](O)C5CC(F)(F)C5)nc4n3)cnc2n1` (single isomer, unassigned) [Compound B74S]: the half-inhibitory concentration (IC50) in assay [1] worked out at 24.1 nM; on 15-PGDH in A549 cells, 4.48 nM.

On to `Cn1cc2cc(-c3ncc4cc([C@H](O)C5CC(F)(F)C5)sc4n3)cnc2n1` (single isomer, unassigned) [Compound B75R], for which the IC50 in assay [1] amounted to 0.382 nM; on 15-PGDH in A549 cells it was 0.0162 nM.

As to `Cn1cc2cc(-c3ncc4cc([C@@H](O)C5CC(F)(F)C5)sc4n3)cnc2n1` (single isomer, unassigned) [Compound B75S], the concentration for half-maximal inhibition (IC50) amounted to 25.4 nM in assay [1] and 12.5 nM at 15-PGDH in A549 cells.

For `Cn1cc2cc(-c3cnc4sc([C@H](O)C5CC(F)(F)C5)cc4c3)cnc2n1` (single isomer, unassigned) [Compound B77R], the IC50 was 4.93 nM in assay [1] and 1.29 nM on 15-PGDH in A549 cells.

For the compound `Cn1cc2cc(-c3cnc4sc([C@@H](O)C5CC(F)(F)C5)cc4c3)cnc2n1` (single isomer, unassigned) [Compound B77S], the IC50 worked out at 154 nM in assay [1] and 11.4 nM on 15-PGDH in A549 cells.

Turning to `Cn1cc2cc(-c3cnc4cc([C@H](O)C5CC(F)(F)C5)sc4c3)cnc2n1` (single isomer, unassigned) [Compound B78R], the concentration for half-maximal inhibition (IC50) turned out to be 17 nM in assay [1] and 2.49 nM at 15-PGDH in A549 cells.

On to `Cn1cc2cc(-c3cnc4cc([C@@H](O)C5CC(F)(F)C5)sc4c3)cnc2n1` (single isomer, unassigned) [Compound B78S], for which the half-inhibitory concentration (IC50) was found to be 896 nM in assay [1] and 57.1 nM at 15-PGDH in A549 cells.

Take `[2H][C@](O)(c1cc2ccc(-c3cnc4nn(C)cc4c3)nc2s1)C1CC(F)(F)C1` (single isomer, unassigned) [Compound B79R]: the IC50 in assay [1] came out at 0.399 nM; on 15-PGDH in A549 cells it was 0.0094 nM.

For `[2H][C@@](O)(c1cc2ccc(-c3cnc4nn(C)cc4c3)nc2s1)C1CC(F)(F)C1` (single isomer, unassigned) [Compound B79S], the IC50 in assay [1] was 0.706 nM; on 15-PGDH in A549 cells it was 0.37 nM.

Turning to `Cn1cc2cc(-c3ccc4cc([C@H](CO)C5CC(F)(F)C5)sc4n3)cnc2n1` (single isomer, unassigned) [Compound B80S], the values for the IC50 (in assay [1]; on 15-PGDH in A549 cells) were 1.16 nM and 0.339 nM, respectively.

Regarding `Cc1c([C@H](O)C2CC(F)(F)C2)sc2nc(-c3cnc4nn(C)cc4c3)ccc12` (single isomer, unassigned) [Compound B83R], the concentration for half-maximal inhibition (IC50) worked out at 0.296 nM in assay [1] and 0.0103 nM at 15-PGDH in A549 cells.

In the case of `Cc1c([C@@H](O)C2CC(F)(F)C2)sc2nc(-c3cnc4nn(C)cc4c3)ccc12` (single isomer, unassigned) [Compound B83S], the half-maximal inhibitory concentration (IC50) in assay [1] stood at 5.13 nM; on 15-PGDH in A549 cells it was 1.11 nM.

In the case of `Cn1cc2cc(-c3ccc4cc([C@H](O)[C@H]5C[C@@H](C(F)(F)F)C5)sc4n3)cnc2n1` (single isomer, unassigned) [Compound B84RC], the concentration for half-maximal inhibition (IC50) in assay [1] is 0.47 nM; on 15-PGDH in A549 cells, 0.492 nM.

As for `Cn1cc2cc(-c3ccc4cc([C@H](O)[C@H]5C[C@H](C(F)(F)F)C5)sc4n3)cnc2n1` (single isomer, unassigned) [Compound B84RT], the IC50 in assay [1] is 0.365 nM; at 15-PGDH in A549 cells it was 0.515 nM.

For orientation: IC50 means the concentration at which inhibition is half-maximal.
